Measurements published in article PMC12897534, “Design, synthesis, and antiproliferative activity of new 5-ethylsulfonyl-indazole-3-carbohydrazides as dual EGFR/VEGFR-2 kinases inhibitors” (Journal of Enzyme Inhibition and Medicinal Chemistry, 2025).
Where “and” joins values, the source holds several entries; their conditions need not be identical. Equal values may be shown once.

Experiments:
EGFR^T790M = test system: EGFR^T790M; design: method as in PMID 26275028; details: cited from earlier work
wild-type EGFR = test system: wild-type EGFR; design: method as in PMID 26275028; details: cited from earlier work
EGFR^L858R = test system: EGFR^L858R; design: method as in PMID 26275028; details: cited from earlier work
[1] = Cell viability assay (MTT) on normal cell line; details: human, MCF-10A normal mammary gland epithelial cells
Method: The viability of the investigated compounds was assessed using the normal human mammary gland epithelial cell line MCF-10A. After four days of incubation on MCF-10A cells with 50 µM of each examined compound, cell viability was assessed using the MTT test[46]^,[47].
The viability of 7a–o was determined using the normal human mammary gland epithelial (MCF-10A) cell line^46,[47].
MTT assay was performed to investigate the effect of the synthesized compounds on mammary epithelial cells (MCF-10A). The cells were propagated in medium consisting of Ham's F-12 medium/ Dulbecco's modified Eagle's medium (DMEM) (1:1) supplemented with 10% foetal calf serum (GIBCO, UK), 2 mM glutamine, insulin (10 μg/mL), hydrocortisone (500 ng/mL) and epidermal growth factor (20 ng/mL). Trypsin ethylenediamine tetra acetic acid (EDTA) was used to passage the cells after every 2-3 days. 96-well flat-bottomed cell culture plates were used to seed the cells at a density of 10^4 cells mL^-1. The medium was aspirated from all the wells of culture plates after 24 h followed by the addition of synthesized compounds (in 200 μL medium to yield a final concentration of 0.1% (v/v) dimethyl sulfoxide) into individual wells of the plates. Four wells were designated to a single compound. The plates were allowed to incubate at 37°C for 96 h. Afterwards, the medium was aspirated and 3-[4,5-dimethylthiazol-2-yl]-2,5-diphenyltetrazolium bromide (MTT) (0.4 mg/mL) in medium was added to each well and subsequently incubated for 3 h. The medium was aspirated and 150 μL dimethyl sulfoxide (DMSO) was added to each well. The plates were vortexed followed by the measurement of absorbance at 540 nm on a microplate reader.

[2] = test system: MCF-7 (breast) cancer cell line; experiment: Antiproliferative assay, MCF-7; type: cell-based, human; details: for IC50: Homo sapiens, MCF7, read-out: Antiproliferative activity IC50 ± SEM, MCF-7; for Fold more potent than erlotinib (MCF-7 IC50): MCF-7 IC50 ratio to erlotinib
Method: (§1) Table 1 presents the median inhibitory concentration (IC50) and GI50 (mean IC50) for the four cancer cell lines.
(§2) Refer to Appendix A for additional information.
(§3) To explore the antiproliferative potential of compounds propidium iodide fluorescence assay was performed using different cell lines such as Panc-1 (pancreas cancer cell line) [Panc-1-CTC (RRID:CVCL_VQ69)], MCF-7 (breast cancer cell line) [MCF-7 (RRID:CVCL_0031)], HT-29 (colon cancer cell line) [HT-29 (RRID:CVCL_0320)] and A-549 (epithelial cancer cell line)[A-549 (RRID:CVCL_0023)], respectively. All cell lines were obtained from ATCC (American Type Cell Culture).
(§4) To calculate the total nuclear DNA, a fluorescent dye (propidium iodide, PI) is used which can attach to the DNA, thus offering a quick and precise technique. PI cannot pass through the cell membrane and its signal intensity can be considered as directly proportional to quantity of cellular DNA. Cells whose cell membranes are damaged or have changed permeability are counted as dead ones. The assay was performed by seeding the cells of different cell lines at a density of 3000-7500 cells/well (in 200 μl medium) in culture plates followed by incubation for 24 h at 37 °C in humidified 5% CO2 /95% air atmospheric conditions. The medium was removed; the compounds were added to the plates at 10 μM concentrations (in 0.1% DMSO) in triplicates, followed by incubation for 48 h. DMSO (0.1%) was used as control. After incubation, medium was removed followed by the addition of PI (25 μl, 50 μg/mL in water/medium) to each well of the plates. At -80 °C, the plates were allowed to freeze for 24 h, followed by thawing at 25 °C. A fluorometer (Polar-Star BMG Tech) was used to record the readings at excitation and emission wavelengths of 530 and 620 nm for each well. The percentage cytotoxicity of compounds was calculated using the following formula: […]

EGFR = EGFR (Homo sapiens, UniProt P00533); experiment: EGFR-TK inhibitory assay; details: EGFR inhibition IC50 ± SEM
Chain of EGFR (P00533 669-1210): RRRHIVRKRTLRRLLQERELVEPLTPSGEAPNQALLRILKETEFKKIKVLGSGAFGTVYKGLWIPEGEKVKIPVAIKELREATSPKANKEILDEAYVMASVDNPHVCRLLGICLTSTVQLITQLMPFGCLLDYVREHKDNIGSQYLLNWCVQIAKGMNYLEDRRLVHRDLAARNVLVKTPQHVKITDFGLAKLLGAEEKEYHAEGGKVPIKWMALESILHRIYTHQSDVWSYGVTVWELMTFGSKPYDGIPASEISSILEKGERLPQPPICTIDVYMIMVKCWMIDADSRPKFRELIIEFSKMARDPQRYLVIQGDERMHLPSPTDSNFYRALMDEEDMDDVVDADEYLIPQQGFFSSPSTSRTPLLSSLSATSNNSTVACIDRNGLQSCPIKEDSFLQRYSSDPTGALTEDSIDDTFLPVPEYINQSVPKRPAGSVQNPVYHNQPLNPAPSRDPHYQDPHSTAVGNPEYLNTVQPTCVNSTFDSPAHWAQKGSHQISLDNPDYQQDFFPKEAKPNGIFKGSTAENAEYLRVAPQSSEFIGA
Method: To record autophosphorylation level, EGFR kinase assay was carried out on the basis of DELFIA/Time-Resolved Fluorometry. […] Each compound (10 μL) was incubated with recombinant enzyme (10 μL, 5 ng for EGFR, 1:80 dilution in 100 mM HEPES) for 10 min at 25 °C, subsequent to the addition of 5X buffer (10 μL, containing 2 mM MnCl2, 100 μM Na3VO4, 20 mM HEPES and 1 mM DTT) and ATP-MgCl2 (20 μL, containing 0.1 mM ATP and 50 mM MgCl2) and incubation for 1h. The negative and positive controls were included in each plate by the incubation of enzyme either with or without ATP-MgCl2. The liquid was removed after incubation and the plates were washed thrice using a wash buffer. The Europium-tagged antiphosphotyrosine antibody (75 μL, 400 ng) was added to each well followed by incubation of 1h and then washing of the plates using buffer. […] The autophosphorylation percentage inhibition by compounds was calculated using the following equation:
The majority of signals detected by antiphosphotyrosine antibody were from EGFR because the enzyme preparation contained low impurities.

VEGFR-2 = VEGFR-2 (Homo sapiens, UniProt P35968); experiment: VEGFR-2 kinase inhibitory assay
Chain of VEGFR-2 (P35968 20-1356): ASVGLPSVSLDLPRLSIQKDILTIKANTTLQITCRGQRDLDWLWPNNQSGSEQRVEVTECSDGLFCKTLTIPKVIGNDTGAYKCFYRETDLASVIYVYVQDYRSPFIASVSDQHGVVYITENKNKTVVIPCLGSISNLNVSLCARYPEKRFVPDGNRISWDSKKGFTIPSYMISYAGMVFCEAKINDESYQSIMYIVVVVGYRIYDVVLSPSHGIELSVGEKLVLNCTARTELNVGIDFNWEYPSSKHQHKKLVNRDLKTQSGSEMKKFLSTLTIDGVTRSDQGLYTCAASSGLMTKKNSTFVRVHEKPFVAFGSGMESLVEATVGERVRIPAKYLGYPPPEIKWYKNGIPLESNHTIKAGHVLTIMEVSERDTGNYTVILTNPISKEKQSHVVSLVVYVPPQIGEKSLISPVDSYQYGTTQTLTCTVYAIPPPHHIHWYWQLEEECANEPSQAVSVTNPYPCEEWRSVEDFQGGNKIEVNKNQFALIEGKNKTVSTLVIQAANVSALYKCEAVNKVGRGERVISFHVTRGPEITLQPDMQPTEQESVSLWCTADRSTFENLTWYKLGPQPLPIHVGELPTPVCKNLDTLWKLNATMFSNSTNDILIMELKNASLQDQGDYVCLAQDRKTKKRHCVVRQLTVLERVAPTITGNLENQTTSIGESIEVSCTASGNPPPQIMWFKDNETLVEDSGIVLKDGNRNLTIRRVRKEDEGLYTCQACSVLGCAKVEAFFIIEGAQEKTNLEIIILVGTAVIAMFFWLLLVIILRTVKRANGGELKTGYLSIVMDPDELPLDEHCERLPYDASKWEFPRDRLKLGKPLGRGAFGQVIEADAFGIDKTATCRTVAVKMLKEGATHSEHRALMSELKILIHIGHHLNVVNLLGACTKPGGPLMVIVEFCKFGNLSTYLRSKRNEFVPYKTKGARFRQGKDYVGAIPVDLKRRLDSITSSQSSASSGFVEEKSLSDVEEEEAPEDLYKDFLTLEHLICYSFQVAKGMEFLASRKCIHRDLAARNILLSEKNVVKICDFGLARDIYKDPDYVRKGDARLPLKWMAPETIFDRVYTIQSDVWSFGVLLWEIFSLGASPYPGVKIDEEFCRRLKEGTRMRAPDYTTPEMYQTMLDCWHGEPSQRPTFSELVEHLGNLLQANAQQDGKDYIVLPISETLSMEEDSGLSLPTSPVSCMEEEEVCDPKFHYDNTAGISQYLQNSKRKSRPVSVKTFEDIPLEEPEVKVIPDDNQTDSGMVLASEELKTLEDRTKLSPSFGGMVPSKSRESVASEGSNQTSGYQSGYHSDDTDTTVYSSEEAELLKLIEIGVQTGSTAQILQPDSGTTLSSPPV
Method: Prepare all the solutions using autoclaved, deionized water and analytical grade reagents. Prepare and store all the reagents at room temperature (unless indicated otherwise). […] The assays used an ULight-labeled peptide substrate and a Europium-W1024-labeled antiphosphotyrosine antibody. The VEGFR-2 was purchased from Carna Biosciences, Inc. (New York, USA). The 384-well plates were obtained from PerkinElmer. […] Negative control: 2.5 μL/well 4×substrate/ATP mixture and 7.5 μL 1×kinase assay buffer in 384-well plate well. […] After incubation at room temperature and dark for 60 min, 5 μL 4×stop solution was added to corresponding wells to react for 5 min and then 5 μL 4×detection mix was added to the corresponding wells of a 384-well plate. The mixture was centrifugally mixed and stayed for 60 min at room temperature for color development. The plate was read using an Envision plate reader. The inhibition rate (%) = (positive well reading-compound well reading)/(positive well reading-negative well reading)×100. The corresponding IC50 values were calculated using GraphPad Prism 5.0.

Bcl-2 = experiment: Apoptotic markers assay, Bcl-2 level in A-549 cells; type: cell-based, human; details: for Bcl-2 level: control 5
Method: (§5) The Bcl-2 protein family, comprising inducer proteins (Bax) and suppressor proteins (Bcl-2), primarily regulates apoptosis.
(§6) Appendix A gives more details.
Mix all the reagents thoroughly without foaming before use. Wash the microwells twice with approximately 300 μL Wash Buffer per well with thorough aspiration of microwell contents between washes. Take caution not to scratch the surface of the microwells. After the last wash, empty the wells and tap microwell strips on absorbent pad or paper towel to remove excess Wash Buffer. Use the microwell strips immediately after washing or place upside down on a wet absorbent paper for not longer than 15 minutes. […] Add 100 μL of Sample Diluent in duplicate to all standard wells and to the blank wells. Prepare standard (1:2 dilution) in duplicate ranging from 32 ng/mL to 0.5 ng/mL. Add 100 μL of Sample Diluent, in duplicate, to the blank wells. Add 80 μL of Sample Diluent, in duplicate, to the sample wells. Add 20 μL of each Sample, in duplicate, to the designated wells. Add 50 μL of diluted biotin-conjugate to all wells, including the blank wells. Cover with a plate cover and incubate at room temperature, on a microplate shaker at 100 rpm if available, for 2 hours. Remove plate cover and empty the wells. Wash microwell strips 3 times as described in step 2. Add 100 μL of diluted Streptavidin-HRP to all wells, including the blank wells. Cover with a plate cover and incubate at room temperature, on a microplate shaker at 100 rpm if available, for 1 hour. Remove the plate cover and empty the wells. Wash microwell strips 3 times as described in step 2. Proceed to the next step. Pipette 100 μl of mixed TMB Substrate Solution to all wells, including the blanks. Incubate the microwell strips at room temperature (18° to 25°C) for about 15 minutes, if available on a rotator set at 100 rpm. Avoid direct exposure to intense light. The point, at which the substrate reaction is stopped, is often determined by the ELISA reader. Many ELISA readers record absorbance only up to 2.0 O.D. Therefore, the color development within individual microwells must be watched by the person running the assay and the substrate reaction stopped before positive wells are no longer properly detectable. Stop the enzyme reaction by quickly pipetting 100 μL of Stop Solution into each well, including the blank wells. It is important that the Stop Solution is spread quickly and uniformly throughout the microwells to completely inactivate the enzyme. Results must be read immediately after the Stop Solution is added or within one hour if the microwell strips are stored at 2 - 8°C in the dark. Read the absorbance of each microwell on a spectrophotometer using 450 nm as the primary wavelength.

[3] = test system: HT-29 (colon) cancer cell line; experiment: Antiproliferative assay, HT-29; type: cell-based, human; details: Homo sapiens, read-out: Antiproliferative activity IC50 ± SEM, HT-29
Method: as §1, §2, §3, §4

[4] = test system: A-549 (lung) cancer cell line; experiment: Antiproliferative assay, A-549; type: cell-based, human; details: Homo sapiens, A549; read-out: Antiproliferative activity IC50 ± SEM, A-549
Method: as §1, §2, §3, §4

Bax = experiment: Apoptotic markers assay, Bax level in A-549 cells; type: cell-based, human; details: for Bax level: control 60; for Bax fold change: relative to untreated control
Method: as §5, §6
Bring all reagents, except the human Bax-α Standard, to room temperature for at least 30 minutes prior to opening. The human Bax-α Standard solution should not be left at room temperature for more than 10 minutes. All standards, controls and samples should be run in duplicate. Refer to the Assay Layout Sheet to determine the number of wells to be used and put any remaining wells with the desiccant back into the pouch and seal the ziploc. Store unused wells at 4 °C. Pipet 100 μL of Assay Buffer into the S0 (0 pg/mL standard) wells. Pipet 100 μL of Standards #1 through #6 into the appropriate wells. Pipet 100 μL of the Samples into the appropriate wells. Tap the plate gently to mix the contents. Seal the plate and incubate at room temperature on a plate shaker for 1 hour at ~500 rpm. Empty the contents of the wells and wash by adding 400 μL of wash solution to every well. Repeat the wash 4 more times for a total of 5 washes. After the final wash, empty or aspirate the wells and firmly tap the plate on a lint free paper towel to remove any remaining wash buffer. Pipet 100 μL of yellow Antibody into each well, except the Blank. Seal the plate and incubate at room temperature on a plate shaker for 1 hour at ~500 rpm. Empty the contents of the wells and wash by adding 400 μL of wash solution to every well. Repeat the wash 4 more times for a total of 5 washes. After the final wash, empty or aspirate the wells and firmly tap the plate on a lint free paper towel to remove any remaining wash buffer. Add 100 μL of blue Conjugate to each well, except the Blank. Seal the plate and incubate at room temperature on a plate shaker for 30 minutes at ~500 rpm. Empty the contents of the wells and wash by adding 400 μL of wash solution to every well. Repeat the wash 4 more times for a total of 5 washes. After the final wash, empty or aspirate the wells and firmly tap the plate on a lint free paper towel to remove any remaining wash buffer. Pipet 100 μL of Substrate Solution into each well. Incubate for 30 minutes at room temperature on a plate shaker at ~500 rpm. Pipet 100 μL Stop Solution to each well. Blank the plate reader against the Blank wells, read the optical density at 450 nm. Calculate the average net Optical Density (OD) bound for each standard and sample by subtracting the average Blank OD from the average OD for each standard and sample. Using linear graph paper, plot the Average Net OD for each standard versus Bax concentration in each standard. Approximate a straight line through the points. The concentration of Bax in the unknowns can be determined by interpolation.

[5] = test system: four cancer cell lines (A-549, MCF-7, Panc-1, HT-29); experiment: Antiproliferative assay, mean over the four cancer cell lines (GI50); type: cell-based, human; details: for IC50: Homo sapiens, mean IC50 of A-549, MCF-7, Panc-1, HT-29
From the text: as §1, §2
All cell lines were obtained from ATCC (American Type Cell Culture). […]

[6] = test system: Panc-1 (pancreatic) cancer cell line; experiment: Antiproliferative assay, Panc-1; type: cell-based, human; details: Homo sapiens, PANC-1; read-out: Antiproliferative activity IC50 ± SEM, Panc-1
Method: as §1, §2, §3, §4

p53 = experiment: Apoptotic markers assay, p53 level in A-549 cells; type: cell-based, human; details: control 65
From the text: as §5
A prime example of a gene product is the p53 protein, which affects apoptosis. The potential for p53 overexpression to induce apoptosis may elucidate the frequent deactivation of p53 enzymes by cancer cells during transformation.
as §6

VEGFR-2 kinase = details: read-out: VEGFR-2 kinase IC50; cited from earlier work

SMILES | IC50 [2] [nM] | IC50 (EGFR) | IC50 (VEGFR-2) [nM] | IC50 [3] [nM] | IC50 [4] [nM] | IC50 [5] [nM] | IC50 [6] [nM] | Fold more potent than erlotinib (MCF-7 IC50) [2] [fold] | Fold more effective than erlotinib (GI50) ([5]; GI50 ratio to erlotinib) [fold] | IC50 (EGFR^T790M) [nM] | IC50 (wild-type EGFR) [nM] | IC50 (EGFR^L858R) [nM] | viability at 96 h, 50 µM [1] [%] | Bcl-2 level (Bcl-2) [ng/mL] | Bax level (Bax) [pg/mL] | Bax fold change (Bax) | p53 level (p53) [pg/mL] | IC50 (VEGFR-2 kinase) [nM] | Bcl-2 fold reduction (Bcl-2; relative to untreated control) [fold]
C=CC(=O)Nc1cccc(Oc2nc(Nc3n[nH]c4ccccc34)cc(N3CCN(C)CC3)n2)c1 [Compound VIII] |  |  |  |  |  |  |  |  |  | 70 | 1700 | 500 |  |  |  |  |  |  | 
CN(c1ccc2cn(C)nc2c1)c1ccnc(Nc2ccc(OC(F)(F)F)cc2)n1 [Compound IX] |  |  |  |  |  |  |  |  |  |  |  |  |  |  |  |  |  | 12 | 

Second part, led by results:

IC50 [2] [nM] | IC50 (EGFR) | IC50 (VEGFR-2) [nM] | IC50 [3] [nM] | IC50 [4] [nM] | IC50 [5] [nM] | IC50 [6] [nM] | Fold more potent than erlotinib (MCF-7 IC50) [2] [fold] | Fold more effective than erlotinib (GI50) ([5]; GI50 ratio to erlotinib) [fold] | SMILES | IC50 (EGFR^T790M) [nM] | IC50 (wild-type EGFR) [nM] | IC50 (EGFR^L858R) [nM] | viability at 96 h, 50 µM [1] [%] | Bcl-2 level (Bcl-2) [ng/mL] | Bax level (Bax) [pg/mL] | Bax fold change (Bax) | p53 level (p53) [pg/mL] | IC50 (VEGFR-2 kinase) [nM] | Bcl-2 fold reduction (Bcl-2; relative to untreated control) [fold]
28 ± 1 | 74 ± 4 nM | 27 ± 1 | 27 ± 1 | 26 ± 1 | 27 | 26 ± 1 |  |  | CCS(=O)(=O)c1ccc2[nH]nc(C(=O)N/N=C/c3nc4ccccc4s3)c2c1 [Compound 7j, (E)-N′-(benzo[d]thiazol-2-ylmethylene)-5-(ethylsulfonyl)-1H-indazole-3-carbohydrazide] |  |  |  | 91 | 1.50 ± 0.001 | 505 ± 3 | 8 fold and 8.5 fold | 340 ± 2 |  | 
34 ± 2 | 83 nM and 81 nM | 36 ± 2 | 32 ± 2 | 31 ± 2 | 32 | 32 ± 2 |  |  | CCS(=O)(=O)c1ccc2[nH]nc(C(=O)N/N=C/c3ccc(O)cc3)c2c1 [Compound 7i, (E)-5-(ethylsulfonyl)-N′-(4-hydroxybenzylidene)-1H-indazole-3-carbohydrazide] |  |  |  | 92 |  |  |  |  |  | 
32 ± 1 | 76 ± 4 nM | 31 ± 2 | 29 ± 1 | 29 ± 1 | 30 | 29 ± 1 | 1.25 |  | CCS(=O)(=O)c1ccc2[nH]nc(C(=O)N/N=C/c3ccn(C)n3)c2c1 [Compound 7o, (E)-5-(ethylsulfonyl)-N′-((1-methyl-1H-pyrazol-3-yl)methylene)-1H-indazole-3-carbohydrazide] |  |  |  | 92 | 1.80 ± 0.001 | 480 ± 2 | 8 fold | 285 ± 2 |  | 
38 ± 2 | 81 nM and 83 nM | 39 ± 2 | 36 ± 2 | 35 ± 2 | 36 | 36 ± 2 |  |  | CCS(=O)(=O)c1ccc2[nH]nc(C(=O)N/N=C/c3ccc(OC)c(O)c3)c2c1 [Compound 7g, (E)-5-(ethylsulfonyl)-N′-(3-hydroxy-4-methoxybenzylidene)-1H-indazole-3-carbohydrazide] |  |  |  | 91 |  |  |  |  |  | 
26 ± 1 | 71 ± 4 nM | 21 ± 1 | 24 ± 1 | 24 ± 1 | 25 | 25 ± 1 | 1.5 | 1.3 | CCS(=O)(=O)c1ccc2[nH]nc(C(=O)N/N=C/c3ccc(OC)nc3)c2c1 [Compound 7k, (E)-5-(ethylsulfonyl)-N′-((6-methoxypyridin-3-yl)methylene)-1H-indazole-3-carbohydrazide] |  |  |  | 93 | 1.20 ± 0.001 | 540 ± 3 | 9 fold | 371 ± 2 |  | 4.2
